The values that follow come from patent publication US20250084138A1, “POLYPEPTIDE HAVING EFFECT OF INHIBITING PROLIFERATION OF LEUKEMIA CELLS” (NANJING FENGRUI BIOTECHNOLOGY CO., LTD, priority 2019, published 2025).

In assay [1] the test system is K562 cells of human chronic myeloid leukemia cell line (CML). Briefly: K562 cells co-incubated with the polypeptide, cell counting. Format: cell-based. As to the method: (§1) The selected experimental cells were: • K562 cells of human chronic myeloid leukemia cell line (CML); • Jurkat cells of acute T lymphocyte leukemia cell line (T-ALL); • THP-1 cells of acute myeloid leukemia cell line (AML); • Baf-3 cells of normal mouse hematopoietic cells (mIL-3 dependent).
(§2) This experiment was grouped into a normal control group, a polypeptide control group, and an experimental polypeptide group.
(§3) Firstly, the polypeptide of the present disclosure was co-incubated with 5*103 (marked as the third power of 10) leukemia tumor cells for 38 h, and the proliferation speed of the cells was detected by two methods of detecting proliferation of the cells (CCK-8) and cell counting, so as to observe the inhibitory effect of the polypeptide on the tumor cells.
(§4) Secondly, the polypeptide was co-incubated with the cells for 24 h, and then collected again, counted, and cultured with drug addition for 38 h, and then detected for the proliferation rate of the cells (CCK-8).
(§5) Each group included one blank (Control), one control peptide (C-p), and three target peptides (P-t, taking an average as the result)

The subject of assay [2] is Jurkat cells of acute T lymphocyte leukemia cell line (T-ALL). The experiment in a line: Jurkat cells co-incubated with the polypeptide, cell counting. Format: cell-based. On the procedure:
as §1, §2, §3, §4, §5

The test system of assay [3] is THP-1 cells of acute myeloid leukemia cell line (AML). The experiment in a line: Thp-1 cells co-incubated with the polypeptide, cell counting. The assay is classed as cell-based. As to the method:
as §1, §2, §3, §4, §5

The test system of assay [4] is Baf-3 cells of normal mouse hematopoietic cells (mIL-3 dependent). The experiment in a line: Baf-3 normal cells co-incubated with the polypeptide, cell counting. Format: cell-based. On the procedure: as §1, §2, §3, §4
Thirdly, we used normal mouse hematopoietic cells to carry out the same experiment as the above to observe the effect of the polypeptide on normal cells.
as §5

In assay [5] the test system is various leukemia cells. The experiment in a line: Overall conclusion on proliferation of the three leukemia cell lines. Format: cell-based. The note with it: K562, Jurkat, THP-1; positive correlation with dosage and times of administration. As to the method:
as §1, §3, §4
The leukemia subtypes represented by the aforementioned three leukemia cells have covered more than 70% of the number of leukemia patients.

For assay [6], the system named is Baf-3 cells of normal mouse hematopoietic cells (mIL-3 dependent). The conditions noted are these: Baf-3 normal mouse hematopoietic cells.

Peptide text beside a SMILES is read from it. * marks the point of attachment. Myristoyl = CCCCCCCCCCCCCC(=O)*

`CCCCCCCCCCCCCC(=O)N[C@@H](CCCCN)C(=O)N[C@@H](CCC(=O)O)C(=O)N[C@@H](CO)C(=O)N[C@@H](CCSC)C(=O)N[C@@H](CC(=O)O)C(=O)N[C@@H](C)C(=O)N[C@@H](CC(N)=O)C(=O)N[C@@H](CCCCN)C(=O)N1CCC[C@H]1C(=O)N[C@H](C(=O)N[C@@H](CCCCN)C(=O)N[C@@H](CC(N)=O)C(=O)N[C@@H](CC(C)C)C(=O)N1CCC[C@H]1C(=O)N[C@@H](CC(C)C)C(=O)N[C@@H](CCCCN)C(=O)N[C@@H](CCCCN)C(=O)N[C@H](C(=O)N1CCC[C@H]1C(=O)N[C@@H](CS)C(=O)N[C@@H](CCCCN)C(=O)N[C@H](C(=O)N[C@@H](CO)C(=O)N[C@@H](C)C(=O)N1CCC[C@H]1C(=O)N[C@@H](CO)C(=O)N[C@@H](CCC(N)=O)C(=O)N[C@@H](CO)C(=O)N[C@@H](Cc1ccccc1)C(=O)N[C@@H](Cc1ccccc1)C(=O)N[C@@H](C)C(=O)N[C@@H](CCCNC(=N)N)C(=O)N[C@@H](CC(=O)O)C(=O)N[C@@H](CC(N)=O)C(=O)N[C@H](C(=O)N[C@@H](C)C(=O)N[C@@H](CC(N)=O)C(=O)O)[C@@H](C)O)[C@@H](C)O)[C@@H](C)CC)[C@@H](C)O` [P-t] (Myristoyl-KESMDANKPTKNLPLKKIPCKTSAPSQSFFARDNTAN-OH): the Cell count in assay [1] (K562, 10 uM, 24 + 38 h, first experiment) is 66.95%; in assay [1] (K562, 10 uM, 38 h, first experiment), 90.22 ± 28.17%; in assay [1] (K562, 15 uM, 24 + 38 h, second experiment), 70.09%; in assay [1] (K562, 15 uM, 38 h, first experiment), 69.55%; in assay [1] (K562, 15 uM, 38 h, second experiment), 80.00%; in assay [2] (10 uM, 38 h, first experiment) it was 106%. Besides, the Cell count in assay [2] (15 uM, 24 + 38 h, first experiment) came to 70.09 ± 18.75%; in assay [2] (15 uM, 24 + 38 h, second experiment), 65.12%; in assay [2] (15 uM, 38 h, first experiment), 69.55 ± 8.35 %; in assay [2] (15 uM, 38 h, second experiment), 73.17%; in assay [3] (Thp-1, 10 uM, 38 h, first experiment), 80.56%; in assay [3] (Thp-1, 15 uM, 24 + 38 h, first experiment), 63.75%. Moreover, the Cell count in assay [3] (Thp-1, 15 uM, 24 + 38 h, second experiment) stood at 68.22%; in assay [3] (Thp-1, 15 uM, 38 h, first experiment) it was 63.17 ± 2.50%; in assay [3] (Thp-1, 15 uM, 38 h, second experiment), 70.09%; in assay [4] (Baf-3, 10 uM, 24 + 38 h, first experiment), 100.11%; in assay [4] (Baf-3, 10 uM, 38 h, first experiment), 99.98%; in assay [4] (Baf-3, 15 uM, 24 + 38 h, second experiment), 100.83%. Moreover, the Cell count in assay [4] (Baf-3, 15 uM, 38 h, second experiment) was 100.41%. The “inhibition of the proliferation of various leukemia cells” value in assay [5] was “obviously inhibit”. Besides, the “inhibitory effect on the proliferation of normal cells” value in assay [6] is listed as “no inhibitory effect”.
